Biological target: Sodium-dependent serotonin transporter (Cavia porcellus, UniProt O35899)
Sequence (O35899 whole entry): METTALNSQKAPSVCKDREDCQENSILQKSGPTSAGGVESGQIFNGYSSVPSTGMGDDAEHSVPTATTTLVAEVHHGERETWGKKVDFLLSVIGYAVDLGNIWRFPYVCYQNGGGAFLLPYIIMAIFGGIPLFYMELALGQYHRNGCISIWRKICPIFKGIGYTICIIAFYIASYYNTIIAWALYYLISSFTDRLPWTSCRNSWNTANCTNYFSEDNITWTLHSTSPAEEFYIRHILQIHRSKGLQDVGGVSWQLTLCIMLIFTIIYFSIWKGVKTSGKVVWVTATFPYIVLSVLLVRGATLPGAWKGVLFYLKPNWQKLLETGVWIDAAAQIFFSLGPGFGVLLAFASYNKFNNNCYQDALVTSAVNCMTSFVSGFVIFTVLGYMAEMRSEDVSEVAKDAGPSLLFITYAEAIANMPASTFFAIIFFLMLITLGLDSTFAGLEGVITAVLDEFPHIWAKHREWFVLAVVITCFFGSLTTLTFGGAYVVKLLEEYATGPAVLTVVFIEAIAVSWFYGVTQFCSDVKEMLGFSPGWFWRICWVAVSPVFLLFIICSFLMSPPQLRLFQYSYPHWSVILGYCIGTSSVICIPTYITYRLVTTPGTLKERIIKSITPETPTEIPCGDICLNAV

Q: `S=C(NC1CCCCC1)N1CCC(c2cnc[nH]2)CC1` was tested. Which Ki did it give?
A: Its Ki is > 10 µM.

Source: BindingDB's records for doi:10.1111/j.1476-5381.1995.tb15071.x (Vrije Universiteit, 1995)
